Results reported in US20180161310A1, “COMPOUNDS AND METHODS FOR THE TREATMENT OF NEUROLOGICAL DISORDERS” (Teleos Therapeutics, LLC, priority 2016, published 2018).
Like-named read-outs stand apart in the source and are kept apart here.

Key:
Kv7.2/7.3 (KCNQ2/3) = target: T1, Kv7.2/7.3 (KCNQ2/3) (Homo sapiens, UniProt O43525+O43526); experiment: CHO-Kv7.2/7.3 (KCNQ2/3) 86Rb efflux assay; format: cell-based; details: for Conc μM @ Max Flux: concentration at which maximal 86Rb flux was seen; for Fitted Max %: fit, maximum activation set at 100% of 70 mM KCl control stimulus; for Emax: read-out: Max Flux %
T1 construct: expressed in transfected cells; host or cells: CHO
Procedure: Compounds were tested at concentrations from 0.001 μM to 30 μM to generate 10-point concentration-response curve (CRC) (n=2). Retigabine and ML213 were included as control activators of Kv7.2/7.3 (KCNQ2/3). Data was normalized to ^86Rb flux elicited by application of extracellular buffer containing 70 mM KCl.
Data were fit with “maximum activation” set at 100% of 70 mM KCl control stimulus.

[1] = system: VU0463271-induced phenotype (KCC2 inhibition) in zebrafish larvae; experiment: animal or person; details: for EC50: Danio rerio, read-out: in vivo EC50; for peak activity: concentration of peak effect, doses 2.5-320 uM, suppression of KCC2-inhibited phenotype in zebrafish
Procedure: To quantify the ability of the same drugs to reverse (or “rescue”) the phenotype caused by either 2.5 μM VU0463271 or 5 μM VU0240551, a rescue score between 0 (no rescue) and 1 (maximal theoretical rescue) was calculated (FIG. 2C). A rescue score incorporates and quantifies the degree of phenotypic reversal and the level of sedation in each concentration tested (see Materials and Methods below).
A diverse collection of 37,000 uncharacterized small molecules were used in a suppressor screen against either 2.5 μM VU0463271 (27,000 compounds) or 5 μM VU0240551 (10,000 compounds), along with 3,700 control wells treated with DMSO alone and 3,700 control wells treated with the KCC2 inhibitor. Each well of a 96-well plate containing at least about 8 zebrafish larvae was treated with a library compound or DMSO followed by treatment with the KCC2 inhibitor. Behavioral profiles pre- and post-treatment with the KCC2 inhibitor were evaluated using the behavioral assay battery described herein, and a detailed quantitative readout of about 15,000 time points was generated for each well. These behavioral profiles were used to calculate a screening score for each library compound, which incorporates and quantifies the rescue score and sedation index (see Materials and Methods).
In some cases, small molecules that alter the KCC2 inhibition phenotype may reverse the behavioral phenotype back to the normal, but could also elicit a new undesired phenotype, which is different from a normal behavior. To discriminate between these possibilities, vector algebra was used to compare each behavioral profile to the behavioral profile of DMSO-treated larvae and defined a value for the phenotypic distance from DMSO. The screen score of each compound was then plotted against its averaged phenotypic distance from DMSO (FIG. 3A) and MI (FIG. 3B) to filter out compounds that elicit a profile that is very different from the control one and compounds that reduce overall activity, respectively.
The reproducibility of the effects and the active concentration ranges of the 30 hits selected, as described above, were determined. Their rescue efficacies were retested in at least six concentrations and their rescue scores were also recalculated.
TT0023831 and six analogs were tested at a range of doses from 2.5-320 uM in a behavioral assay designed to assess the ability of compounds to suppress the effects of KCC2 inhibition. The graphs of FIG. 11 indicate the degree of suppression of the KCC2-inhibited phenotype, where a score of 1 represents complete restoration of KCC2-treated zebrafish to normal. […] Table 4 summarizes the estimated EC50 values and peak effect values for each compound.
A large number of fertilized zebrafish eggs (up to 20,000 embryos per day) were collected from group matings of wild type Ekkwill/Singapore zebrafish. Embryos were raised in hatching jars at 28° C. on a 14/10 hour light/dark cycle until 3 days post fertilization (dpf), then transferred to an incubator under the same conditions until 7 dpf. Groups of eight larvae (7 dpf) were distributed into the wells of a clear flat bottom square well 96-well plates filled with E3 medium (300 μl). Larvae were then incubated at 25° C. on the bench top for one-hour chemical treatment and subsequent experiments.
A library containing 37,000 uncharacterized small molecules was purchased from Life Chemicals and dissolved in DMSO at a stock concentration of 10 mM.

[2] = system: PTZ-induced behavior in zebrafish larvae; experiment: Suppression of PTZ-induced behavior in zebrafish larvae; format: in vivo
Procedure: Differences between behavioral profiles of larval zebrafish treated with KCC2 inhibitors and larval zebrafish treated with PTZ were investigated by evaluating the ability of traditional anti-seizure drugs to reverse their effects. Five drugs in at least six concentrations (by allocating 12 wells per concentration) were tested. These drugs included a benzodiazepine anxiolytic (diazepam), two AEDs that increase GABA levels in the synapse (tiagabine and valproate), a sodium channel blocker (phenytoin) and a synthetic neurosteroid GABAA positive allosteric modulator (PAM, ganaxolone).

[3] = 10-point CRC 0.001-30 μM, n=2, fit with maximum activation set at 100% of 70 mM KCl control, read-out: EC50
[4] = 86Rb flux normalized to 70 mM KCl control
[5] = Table 7, first line of values, read-out: EC50 (μM, raw)
[6] = Table 7, second, unlabelled line of values, read-out: EC50 (μM, raw)

| SMILES | EC50 (Kv7.2/7.3 (KCNQ2/3); [3]) | Conc μM @ Max Flux (Kv7.2/7.3 (KCNQ2/3)) | Fitted Max % (Kv7.2/7.3 (KCNQ2/3)) | EC50 [1] | peak activity [1] | Emax (Kv7.2/7.3 (KCNQ2/3); [4]) | EC50 (Kv7.2/7.3 (KCNQ2/3); [5]) | EC50 (Kv7.2/7.3 (KCNQ2/3); [6]) | other results |
| --- | --- | --- | --- | --- | --- | --- | --- | --- | --- |
| Cc1cc(C)c(NC(=O)C2CC3CCC2C3)c(C)c1 (stereo not shown) [ML213, reference compound] | 0.02 µM | 0.3 µM | 98% |  |  |  |  |  | Max Flux % (Kv7.2/7.3 (KCNQ2/3); [4]): 109%; 86Rb flux elicited by reference activators (Kv7.2/7.3 (KCNQ2/3); EC50 values comparable to literature values): robust concentration-dependent |
| COc1ccc(C(C)C)cc1S(=O)(=O)NCCN1CCOCC1 [TT0048803, 5-isopropyl-2-methoxy-N-(2-morpholinoethyl)benzene-sulfonamide] |  |  |  | < 5 µM | 20 µM |  |  |  |  |
| O=C1NC(=O)C(c2ccccc2)(c2ccccc2)N1 [phenytoin] |  |  |  |  |  |  |  |  | prevention of the formation of the PTZ-induced behavior ([2]; pre-treatment, 160 μM, data not shown): almost no effect |
| CCCOc1nn(CCC)cc1C(=O)Nc1ccc(F)c(Cl)c1 [TT0000352, N-(3-chloro-4-fluorophenyl)-3-propoxy-1-propyl-1H-pyrazole-4-carboxamide] | > 30 µM | 3 µM | 100% |  |  | 33% | 0.48 µM | 0.14 µM |  |
| CN1C(=O)CN=C(c2ccccc2)c2cc(Cl)ccc21 [diazepam] |  |  |  |  |  |  |  |  | prevention of the formation of the PTZ-induced behavior ([2]; zebrafish, in vivo): almost completely prevented |
| COc1cc(S(=O)(=O)NCCN2CCOCC2)c(OC)cc1C [TT0048874, 2,5-dimethoxy-4-methyl-N-(2-morpholinoethyl)benzene-sulfonamide] |  |  |  | 40 µM | 160 µM |  |  |  |  |
| CCCOc1nn(CCC)cc1C(=O)Nc1ccccc1 [TT0000363, N-phenyl-3-propoxy-1-propyl-1H-pyrazole-4-carboxamide] | > 30 µM | 0.001 µM | 100% |  |  | 15% | > 30 µM | > 30 µM |  |
| CCCOc1nn(CCC)cc1C(=O)Nc1ccc(C(F)(F)F)c(C)c1 [TT0000372, N-(3-methyl-4-(trifluoromethyl)phen-yl)-3-propoxy-1-propyl-1H-pyrazole-4-carboxamide] | > 30 µM | 10 µM | 100% |  |  | 31% | 9.5 µM | 1.6 µM |  |
| CCCOc1nn(CCC)cc1C(=O)Nc1cc(F)ccc1F [TT0000351, N-(2,5-difluorophenyl)-3-propoxy-1-propyl-1H-pyrazole-4-carboxamide] | > 30 µM | 10 µM | 100% |  |  | 33% | > 30 µM | > 10 µM |  |
| COc1cc(C)c(C)cc1S(=O)(=O)NCCN1CCOCC1 [TT0038280, 2-methoxy-4,5-dimethyl-N-(2-morpholinoethyl)benzene-sulfonamide] |  |  |  | 40 µM | 80 µM |  |  |  |  |
| CCOC(=O)Nc1ccc(NCc2ccc(F)cc2)cc1N [Retigabine, reference compound] | 0.1 µM |  |  |  |  | 89% |  |  |  |
| COc1cc(C)c(C(C)C)cc1S(=O)(=O)NCC1CCCO1 (stereo not shown) [TT0048274, 5-isopropyl-2-methoxy-4-methyl-N-((tetrahydrofuran-2-yl)methyl)benzenesulfonamide] |  |  |  | > 160 µM | >160 µM |  |  |  |  |
| CCCOc1nn(CCC)cc1C(=O)Nc1ccc(F)cc1F [TT0000349, N-(2,4-difluorophenyl)-3-propoxy-1-propyl-1H-pyrazole-4-carboxamide] | > 30 µM | 10 µM | 100% |  |  | 33% | 0.54 µM | > 30 µM |  |
| CCCOc1nn(CCC)cc1C(=O)Nc1ccc(C(F)(F)F)c(Cl)c1 [TT0000369, N-(3-chloro-4-(trifluoromethyl)phen-yl)-3-propoxy-1-propyl-1H-pyrazole-4-carboxamide] | > 30 µM | 3 µM | 100% |  |  | 35% | 1.54 µM | 2.63 µM |  |
| CCCOc1nn(CCC)cc1C(=O)Nc1ccc(C(F)(F)F)c(F)c1 [TT0000367, N-(3-fluoro-4-(trifluoromethyl)phen-yl)-3-propoxy-1-propyl-1H-pyrazole-4-carboxamide] | > 30 µM | 0.01 µM | 100% |  |  | 21% | > 30 µM | > 30 µM | suppression score dose response compared with other compounds as suppressor of the hyperexcitability phenotype ([1]; zebrafish, FIG. 8 / FIG. 10): outperform the other compounds tested |
| Cc1ccsc1C(=CCCN1CCC[C@@H](C(=O)O)C1)c1sccc1C [tiagabine, reference compound] |  |  |  |  |  |  |  |  | rescue of the behavioral profile induced by KCC2 inhibition (rescue score 0-1) ([1]; phenotype caused by 2.5 μM VU0463271 or 5 μM VU0240551, at least six concentrations): most effective; prevention of the formation of the PTZ-induced behavior ([2]; pre-treatment, non-sedative concentration 40 μM, data not shown): almost completely prevented |
| CCOc1ccc(Br)cc1S(=O)(=O)NCCN1CCOCC1 [TT0048134, 5-bromo-2-ethoxy-N-(2-morpholinoethyl)benzene-sulfonamide] |  |  |  | 15 µM | 20 µM |  |  |  |  |
| CCCOc1nn(CCC)cc1C(=O)Nc1ccc(C#N)cc1 [TT0000366, N-(4-cyanophenyl)-3-propoxy-1-propyl-1H-pyrazole-4-carboxamide] | > 30 µM | 3 µM | 100% |  |  | 28% | 0.0054 µM | > 30 µM |  |
| CC(=O)[C@H]1CC[C@H]2[C@@H]3CC[C@H]4C[C@](C)(O)CC[C@]4(C)[C@H]3CC[C@]12C [ganaxolone] |  |  |  |  |  |  |  |  | prevention of the formation of the PTZ-induced behavior ([2]; pre-treatment, non-sedative concentration 0.31 μM, data not shown): almost completely prevented |
| COc1cc(C)c(Br)cc1S(=O)(=O)NCCN1CCOCC1 [TT0027052, 5-bromo-2-methoxy-4-methyl-N-(2-morpholinoethyl)benzene-sulfonamide] |  |  |  | 5 µM | 20 µM |  |  |  |  |
